Source: US9540351B2, “Pharmaceutically acceptable salts of 3,5-diaminopyrazole kinase inhibitors” (AXIKIN PHARMACEUTICALS, INC., priority 2013, dated 2017)
Read-outs that look alike come from different tables or passages of the source.

How the values were obtained:
[1] = Solubility assessment of salts in water; assay type: physicochemical; settings: thermodynamic from solid, read-out: Aqueous Solubility
Description: Solubility assessment: A preweighed amount of powder of a salt was treated with water to target a nominal concentration of 10 mg/mL. If a clear solution was obtained, then the solubility was noted as ≧10 mg/mL. If a suspension was obtained, additional water was added to target a nominal concentration of 5 mg/mL. If still a suspension after the addition of water, additional water was added to target a lower nominal concentration. If a suspension was still observed at a nominal concentration of 0.1 mg/mL, the suspension was filtered through a 0.4 micron filter, and the filtrate was analyzed by RP-HPLC to ascertain the solubility range of the salt.

[2] = target: T1, kinase domain protein of RC kinase (Homo sapiens, UniProt Q56UN5); assay: Enzymatic assay for kinase inhibitory activity (Crebtide substrate, Lance readout); assay type: biochemical; settings: free base compounds, inhibition of RC kinase activity at 1 μM
T1 sequence (Q56UN5 1061-1324 limits assumed): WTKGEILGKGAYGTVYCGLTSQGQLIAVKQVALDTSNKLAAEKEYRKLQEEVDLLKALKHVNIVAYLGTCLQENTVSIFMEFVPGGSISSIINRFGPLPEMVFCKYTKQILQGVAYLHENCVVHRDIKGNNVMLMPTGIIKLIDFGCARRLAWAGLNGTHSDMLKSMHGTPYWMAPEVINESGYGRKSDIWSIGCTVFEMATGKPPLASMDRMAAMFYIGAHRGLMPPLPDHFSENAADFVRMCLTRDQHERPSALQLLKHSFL
Description: Solutions of a test compound, Crebtide (a substrate), a kinase, and ATP were prepared using 1×MAPK Buffer (50 mM HEPES, 1 mM EGTA, […], 10 mM MgCl2, 2 mM DTT, and 0.01% Tween 20).
To each well, the test compound (1 μL) was first added (in duplicate) to reach a final concentration of 1 μM or 1×IC50 of the compound. The kinase (5 μL) was then added to each well to reach a final concentration of […] for the kinase domain or […] for the full-length domain. Each plate included a positive and negative controls in duplicate wells. Crebtide (2.5 μL) was then added to each well in duplicate to reach a final concentration of 50 nM. If the full-length kinase was used, the plates were incubated for 45 min at room temperature before proceeding further. ATP (2.5 μL) was added to each well to reach a final concentration of 1 μM for the kinase domain and 3 μM for the full-length.
After the addition of ATP, the plates were incubated for 45 min at room temperature. During the incubation, an EDTA solution (40 mM) and anti-Crebtide ([…]) were prepared. Additionally, a detection buffer stock solution was diluted ten fold before use.
After the incubation, the anti-Crebtide (5 μL) and EDTA (5 μL) were added to each well to reach their final concentrations of […] and 10 mM, respectively. The plates were allowed to develop at room temperature for 45 min. The plates were then read at 665 nm and 615 nm using Perkin Elmer Lance machine.
As will be appreciated by those skilled in the are, the activity of a particular salt provided herein will be the same as the activity for the parent free-base compound.

| solubility ([1]; Free base) [µg/mL] | solubility ([1]; HCl salt) [µg/mL] | solubility ([1]; Phosphoric acid salt) [µg/mL] | inhibition at 1 µM [2] [%] | solubility ([1]; Sulfuric acid salt) [µg/mL] | solubility ([1]; Trifluoroacetic acid salt) [µg/mL] | solubility ([1]; camphorsulfonic acid salt) [µg/mL] | solubility ([1]; p-toluenesulfonic acid salt) [µg/mL] | solubility ([1]; tartaric acid salt) [µg/mL] | solubility ([1]; HBr salt) [µg/mL] | solubility ([1]; acetic acid salt) [µg/mL] | solubility ([1]; formic acid salt) [µg/mL] | solubility ([1]; Methane sulfonic acid salt) [µg/mL] | SMILES |
| --- | --- | --- | --- | --- | --- | --- | --- | --- | --- | --- | --- | --- | --- |
| < 40 | > 500 | > 1000 | ≥ 50 | – | – | – | – | – | – | – | – | – | CC(C)N1CCN(c2ccc(Nc3n[nH]c(NCc4ccc(O)cc4)c3C(N)=O)cc2)CC1 [Compound 7, 5-((4-hydroxybenzyl)amino)-3-((4-(4-isopropylpiperazin-1-yl)phenyl)amino)-3H-pyrazole-4-carboxamide] |
| < 40 | > 1000 | – | ≥ 50 | – | – | – | – | – | – | – | – | – | CN1CCN(c2ccc(NC3N=NC(NCc4ccc(O)cc4)=C3C(N)=O)cc2)CC1 (stereo not drawn) [Compound 2, 5-((4-hydroxybenzyl)amino)-3-((4-(4-methylpiperazin-1-yl)phenyl)amino)-3H-pyrazole-4-carboxamide] |
| < 100 | – | > 20000 | ≥ 50 | < 500 | < 500 | < 500 | < 200 | < 200 | – | – | – | – | NC(=O)C1=C(NCc2ccc(O)cc2)N=NC1Nc1ccc(-c2ccccn2)cc1 (stereo not drawn) [Compound 6, 5-((4-hydroxybenzyl)amino)-3-((4-(pyridin-2-yl)phenyl)amino)-3H-pyrazole-4-carboxamide] |
| < 40 | > 500 | – | ≥ 50 | – | – | – | – | – | – | – | – | – | NC(=O)C1=C(NCc2ccc(O)cc2)N=NC1Nc1ccc(CN2CCOCC2)cc1 (stereo not drawn) [Compound 3, 5-((4-hydroxybenzyl)amino)-3-((4-(morpholinomethyl)phenyl)amino)-3H-pyrazole-4-carboxamide] |
| < 40 | > 63 | – | ≥ 50 | – | – | – | – | – | – | – | – | – | NC(=O)C1=C(NCc2ccc(O)cc2)N=NC1Nc1cccc(Cl)c1 (stereo not drawn) [Compound 1, 3-((3-chlorophenyl)amino)-5-((4-hydroxybenzyl)amino)-3H-pyrazole-4-carboxamide] |
| < 100 | > 10000 | < 200 | ≥ 50 | > 2000 | < 200 | < 200 | – | – | > 10000 | < 500 | < 500 | – | NC(=O)c1c(Nc2ccc(N3CCOCC3)cc2)n[nH]c1NCc1ccc(O)cc1 [Compound 4, 5-((4-hydroxybenzyl)amino)-3-((4-morpholinophenyl)amino)-3H-pyrazole-4-carboxamide] |
| < 40 | < 100 | – | ≥ 50 | – | – | – | – | – | – | – | – | – | NC(=O)c1c(Nc2ccc3[nH]ncc3c2)n[nH]c1NCc1ccc(O)cc1 [Compound 9, 3-((1H-indazol-5-yl)amino)-5-((4-hydroxybenzyl)amino)-3H-pyrazole-4-carboxamide] |
| < 100 | > 2000 | > 100 | ≥ 50 | > 10 | > 1000 | – | – | – | – | – | – | > 10000 | NC(=O)C1=C(NCc2ccc(O)cc2)N=NC1Nc1ccc(N2CCOCC2)nc1 (stereo not drawn) [Compound 5, 5-((4-hydroxybenzyl)amino)-3-((6-morpholinopyridin-3-yl)amino)-3H-pyrazole-4-carboxamide] |
| < 40 | > 500 | > 1000 | ≥ 50 | – | – | – | – | – | – | – | – | – | NC(=O)C1=C(NCc2ccc(O)cc2)N=NC1Nc1ccc(-n2ccnc2)cc1 (stereo not drawn) [Compound 8, 3-((4-(1H-imidazol-1-yl)phenyl)amino)-5-((4-hydroxybenzyl)amino)-3H-pyrazole-4-carboxamide] |
